The values that follow come from US6936600B2, “Sorbitol dehrydrogenase inhibitors” (Pfizer Inc, priority 1999, dated 2005).

For orientation: melting point means the temperature of the solid-liquid transition.

In turn, `C[C@@H]1CN(c2ccnc(-c3cccnc3)n2)C[C@H](C)N1c1ccnc([C@@H](C)O)n1` [Example 201, 1R-{4-[2R,6S-Dimethyl-4-(2-pyridin-3-yl-pyrimidin-4-yl)-piperazin-1-yl]-pyrimidin-2-yl}-ethanol] registered a melting point of 61 to 70 °C. `C[C@@H]1CN(c2ccnc(N3CCN(C)CC3)n2)C[C@H](C)N1c1ccnc([C@@H](C)O)n1` [Example 202, 1R-(4-{2R,6S-Dimethyl-4-[2-(4-methyl-piperazin-1-yl)-pyrimidin-4-yl]-piperazin-1-yl}-pyrimidin-2-yl)-ethanol]: the melting point was 60 to 70 °C. Under `C[C@@H]1CN(c2ccnc([C@@H](C)O)n2)C[C@H](C)N1c1ccnc(N2CCN(C)CC2)n1` [Example 208, 1R-(4-{3R,5S-Dimethyl-4-[2-(4-methyl-piperazin-1-yl)-pyrimidin-4-yl]-piperazin-1-yl}-pyrimidin-2-yl)-ethanol] stands 181 to 182 °C; under `C[C@@H]1CN(c2ncnc(N3CCOCC3)n2)C[C@H](C)N1c1ccnc([C@@H](C)O)n1` [Example 212, 1R-{4-[2R,6S-Dimethyl-4-(4-morpholino-4-yl-[1,3,5]triazin-2-yl)-piperazin-1-yl]-pyrimidin-2-yl}-ethanol], 78 to 82 °C; under `COc1nc(C)nc(N2[C@H](C)CN(c3ccnc([C@@H](C)O)n3)C[C@@H]2C)n1` [Example 213, 1R-{4-[4-(4-Methoxy-6-methyl-[1,3,5]triazin-2-yl)-3R,5S-dimethylpiperazin-1-yl]-pyrimidin-2-yl}-ethanol], 161 to 162 °C. `COc1nc(OC)nc(N2[C@H](C)CN(c3ccnc([C@@H](C)O)n3)C[C@@H]2C)n1` [Example 214, 1R-{4-[4-(4,6-Dimethoxy-[1,3,5]triazin-2-yl)-3R,5S-dimethyl-piperazin-1-yl]-pyrimidin-2-yl}-ethanol]: the melting point is 187 to 188 °C. The result for `C[C@@H]1CN(c2ncnc(-c3ccccc3)n2)C[C@H](C)N1c1ccnc([C@@H](C)O)n1` [Example 215] reads 133 to 134 °C; that for `COc1nc(CO)nc(N2[C@H](C)CN(c3ccnc([C@@H](C)O)n3)C[C@@H]2C)n1` [Example 236, 1R-{4-[4-(4-Hydroxymethyl-6-methoxy-[1,3,5]triazin-2-yl)-3R,5S-dimethyl-piperazin-1-yl]-pyrimidin-2-yl}-ethanol], 170 to 171 °C; that for `Cc1nc(C)nc(N2[C@H](C)CN(c3ccnc([C@@H](C)O)n3)C[C@@H]2C)n1` [Example 242, 1R-{4-[4-(4,6-Dimethyl-[1,3,5]triazin-2-yl)-3R,5S-dimethyl-piperazin-1-yl]-pyrimidin-2-yl}-ethanol], 157 to 159 °C. Under `C[C@@H](O)c1nccc(N2CCc3ccc(S(=O)(=O)N(C)C)cc3C2)n1` [Example 247, (R)-2-[2-(1-Hydroxy-ethyl)-pyrimidin-4-yl]-1,2,3,4-tetrahydro-isoquinoline-7-sulfonic acid dimethylamide] stands 120.5 to 122 °C; under `C[C@@H](O)c1nccc(N2CCc3ncncc3C2)n1` [Example 253], 79 to 82 °C. Under `C[C@@H](O)c1nccc(N2CCc3nc(C(F)(F)F)ncc3C2)n1` [Example 255] stands 130 to 132 °C; under `C[C@@H](O)c1nccc(N2CCc3nc(N)ncc3C2)n1` [Example 256], 208 to 210 °C; under `C[C@@H](O)c1nccc(N2CCc3nc(-c4ccccc4)ncc3C2)n1` [Example 257], 128 to 131 °C. In turn, `C[C@@H](O)c1nccc(N2CCc3nc(-c4ccncc4)ncc3C2)n1` [Example 258] returned a melting point of 144 to 148 °C. The result for `C[C@@H](O)c1nccc(N2CCn3c(nnc3-c3nc4ccccc4s3)C2)n1` [Example 259, (R)-1-[4-(3-Benzothiazol-2-yl-5,6-dihydro-8H-[1,2,4]triazolo[4,3-a]pyrazin-7-yl)-pyrimidin-2-yl]-ethanol] reads 216.5 to 218.5 °C; that for `C[C@@H](O)c1nccc(N2CCn3c(nnc3-c3ccccc3)C2)n1` [Example 260], 161 to 164 °C. The result for `C[C@@H](O)c1nccc(N2CCn3c(nnc3-c3ccc4nccnc4c3)C2)n1` [Example 261] reads 212 to 215 °C.

`C[C@@H](O)c1nccc(N2CCn3c(nnc3-c3cc4ccccc4s3)C2)n1` [Example 262] came in with a melting point of 224 to 226 °C. The result for `C[C@@H](O)c1nccc(N2CCn3c(nnc3-c3ccc(-c4ccccc4)cc3)C2)n1` [Example 263] reads 123 to 125 °C.

With `C[C@@H](OC(=O)Cc1nn(Cc2nc3cc(C(F)(F)F)ccc3s2)c(=O)c2ccccc12)c1nccc(N2CCN(C(=O)/C=C/c3cccs3)CC2)n1` [Example 276, (E)-[4-Oxo-3-(5-trifluoromethyl-benzothiazol-2-ylmethyl)-3,4-dihydro-phthalazin-1-yl]-acetic acid 1R-{4-[4-(3-thiophen-2-yl-acryloyl)-piperazin-1-yl]-pyrimidin-2-yl}-ethyl ester], the melting point was in the range of 105 to 109 °C.

Regarding `C[C@@H](OC(=O)Cc1nn(Cc2nc3cc(C(F)(F)F)ccc3s2)c(=O)c2ccccc12)c1nccc(N2CCN(c3cnc4ccccc4n3)CC2)n1` [Example 277, (E)-[4-Oxo-3-(5-trifluoromethyl-benzothiazol-2-ylmethyl)-3,4-dihydro-phthalazin-1-yl]-acetic acid 1R-[4-(4-quinoxalin-2-yl-piperazin-1-yl)-pyrimidin-2-yl]-ethyl ester], the melting point fell in the range of 108 to 112 °C.
